In brackets after ≈: the same amount, converted by molar mass. Blank lines part the entries; values can stand above or below the compound they belong to.
Key:
Experiment in all cases: ≥ marks a high value that may be exact or a test limit, other limits are often not marked, values filed in µg/mL are converted to µM
[1] = test system: Bacillus subtilis ATCC 6051
[2] = test system: Klebsiella pneumoniae ATCC 10031
[3] = test system: Salmonella enterica subsp. enterica serovar Typhimurium ATCC 14028
[4] = test system: Escherichia coli DH5alpha
[5] = test system: Staphylococcus aureus ATCC 6538
[6] = test system: Micrococcus luteus ATCC 4698
[7] = test system: Staphylococcus epidermidis ATCC 12228
[8] = test system: Staphylococcus aureus NCTC 10788
[9] = test system: Escherichia coli NCTC 10418
[10] = test system: Candida albicans NCYC 1467
[11] = test system: Streptococcus mutans
[12] = test system: Candida albicans NCPF 1467
[13] = test system: Mycobacterium tuberculosis H37Rv
[14] = test system: Enterococcus faecalis ATCC 29212
[15] = test system: Escherichia coli ATCC 25922
[16] = test system: Staphylococcus aureus ATCC 25923
[17] = test system: Streptococcus agalactiae
[18] = test system: Pseudomonas aeruginosa ATCC 27853

SMILES: CC(C)C[C@H](NC(=O)[C@H](CC(C)C)NC(=O)[C@H](CCCCN)NC(=O)[C@H](CO)NC(=O)[C@@H](NC(=O)[C@H](C)NC(=O)[C@H](CCCCN)NC(=O)[C@H](Cc1ccccc1)NC(=O)[C@H](CC(C)C)NC(=O)[C@H](C)NC(=O)CNC(=O)[C@H](CC(C)C)NC(=O)[C@@H](N)Cc1ccccc1)C(C)C)C(=O)O [FLGALFKAVSKLL]
- MIC [5]: 8.53 µM (≈ 12 µg/mL)
- MIC [6]: 4.98 µM (≈ 7 µg/mL)
- MIC [7]: 15.6 µM (≈ 22 µg/mL)
- MIC [4]: 25.6 µM (≈ 36 µg/mL)

SMILES: CC[C@H](C)[C@H](NC(=O)[C@H](CC(=O)O)NC(=O)[C@H](CCCCN)NC(=O)[C@H](Cc1c[nH]c2ccccc12)NC(=O)[C@H](CC(C)C)NC(=O)[C@H](C)N)C(=O)N[C@@H](CC(C)C)C(=O)N[C@@H](CCCCN)C(=O)N[C@@H](CC(N)=O)C(=O)N[C@@H](C)C(=O)NCC(=O)N[C@@H](CCCCN)C(=O)N[C@@H](C)C(=O)N[C@@H](C)C(=O)N[C@@H](CC(C)C)C(=O)N[C@@H](CC(N)=O)C(=O)N[C@@H](CCC(=O)O)C(=O)N[C@H](C(=O)N[C@@H](CC(N)=O)C(=O)N[C@@H](CCC(N)=O)C(=O)N[C@H](C(=O)N[C@H](C(=O)N[C@@H](CCC(N)=O)C(N)=O)C(C)C)[C@@H](C)CC)[C@@H](C)CC [ALWKDILKNAGKAALNEINQIVQ]
- MIC [8]: ≥ 256 µM
- MIC [9]: ≥ 32 µM
- MIC [10]: ≥ 64 µM

SMILES: NCCCC[C@@H]1NC(=O)[C@H](Cc2c[nH]c3ccccc23)NC(=O)CNC(=O)CNC(=O)[C@@H](N)CSSC[C@@H](C(=O)O)NC(=O)[C@H](CCCN=C(N)N)NC(=O)[C@H](CCCCN)NC(=O)[C@H](CCCN=C(N)N)NC1=O [CGGWKRKRC]
- MIC [6]: 0.8 µM (≈ 0.873 µg/mL)

SMILES: CC[C@H](C)[C@H](NC(=O)CNC(=O)CNC(=O)[C@H](C)NC(=O)[C@@H](NC(=O)[C@H](Cc1cnc[nH]1)NC(=O)[C@@H]1CCCN1C(=O)[C@@H](NC(=O)[C@H](CCSC)NC(=O)[C@H](CO)NC(=O)[C@H](CC(C)C)NC(=O)[C@@H](N)Cc1ccccc1)[C@@H](C)CC)[C@@H](C)CC)C(=O)N[C@@H](C)C(=O)N[C@@H](CO)C(=O)N[C@@H](CC(C)C)C(=O)N[C@H](C(=O)N[C@@H](CCCCN)C(=O)N[C@@H](CC(N)=O)C(=O)N[C@@H](CC(C)C)C(N)=O)C(C)C [FLSMIPHIAGGIASLVKNL]
- MIC [8]: 16.2 µM (≈ 32 µg/mL)
- MIC [9]: ≥ 258 µM
- MIC [12]: ≥ 32.3 µM

SMILES: CC[C@H](C)[C@H](NC(=O)[C@H](CCCCN)NC(=O)[C@@H](NC(=O)[C@H](Cc1ccccc1)NC(=O)[C@@H](NC(=O)[C@@H]1CCCN1C(=O)[C@H](CS)NC(=O)[C@H](C)N)[C@@H](C)CC)[C@@H](C)O)C(=O)N[C@@H](CCC(N)=O)C(=O)NCC(=O)N[C@H](C(=O)N[C@@H](CS)C(=O)N[C@@H](Cc1ccc(O)cc1)C(=O)N[C@@H](CCCN=C(N)N)C(=O)NCC(=O)O)[C@@H](C)O [ACPIFTKIQGTCYRG]
- MIC [13]: 12.1 µM (≈ 20 µg/mL)

SMILES: CC(C)C[C@H](NC(=O)[C@H](C)N)C(=O)N[C@@H](Cc1ccc(O)cc1)C(=O)N[C@@H](CCCCN)C(=O)N[C@@H](CCCCN)C(=O)N[C@@H](Cc1ccccc1)C(=O)N[C@@H](CCCCN)C(=O)N[C@@H](CCCCN)C(=O)N[C@@H](CCCCN)C(=O)N[C@@H](CC(C)C)C(=O)N[C@@H](CC(C)C)C(=O)N[C@@H](CCCCN)C(=O)N[C@@H](CO)C(=O)N[C@@H](CC(C)C)C(=O)N[C@@H](CCCCN)C(=O)N[C@@H](CCCN=C(N)N)C(=O)N[C@@H](CC(C)C)C(=O)NCC(=O)O [ALYKKFKKKLLKSLKRLG]
- MIC [14]: 8.7 µM (≈ 18.8 µg/mL)
- MIC [15]: 8.7 µM (≈ 18.8 µg/mL)
- MIC [16]: 69.4 µM (≈ 150 µg/mL)
- MIC [17]: 4.3 µM (≈ 9.3 µg/mL)

The remaining lines, values ahead:

- MIC [1]: ≥ 1000 µM
SMILES: NCCCC[C@H](NC(=O)[C@H](CCC(=O)O)NC(=O)[C@H](CC(=O)O)NC(=O)[C@H](CCC(=O)O)NC(=O)[C@H](CC(=O)O)NC(=O)[C@H](CCC(=O)O)NC(=O)[C@H](CC(=O)O)NC(=O)[C@H](CCC(N)=O)NC(=O)[C@H](CCCN=C(N)N)NC(=O)[C@@H](N)CO)C(=O)N[C@@H](CCCN=C(N)N)C(=O)N[C@@H](CCCN=C(N)N)C(=O)N1CCC[C@H]1C(=O)N[C@@H](CCCN=C(N)N)C(=O)O [SRQDEDEDEKRRPR]

- MIC [2]: ≥ 44.4 µM
- MIC [3]: > 44.4 µM
- MIC [4]: ≥ 44.4 µM
SMILES: CC[C@H](C)[C@@H]1NC(=O)[C@H](CCCCN)NC(=O)[C@@H](NC(=O)[C@@H](NC(=O)[C@@H](NC(=O)[C@@H](NC(=O)[C@@H]2CCCN2C(=O)[C@H](CC(C)C)NC(=O)[C@H](Cc2ccccc2)NC(=O)[C@H](CC(N)=O)NC(=O)[C@H](C)NC(=O)[C@H](C)NC(=O)[C@H](CC(C)C)NC(=O)CNC(=O)[C@H](C)NC(=O)[C@H](CC(C)C)NC(=O)[C@@H](N)CC(C)C)[C@@H](C)O)[C@@H](C)CC)[C@@H](C)CC)CSSC[C@@H](C(=O)O)NC(=O)[C@H](CCCCN)NC(=O)[C@H](Cc2ccc(O)cc2)NC(=O)[C@H](CO)NC1=O [LLAGLAANFLPTIICKISYKC]

- MIC [11]: 4.64 µM (≈ 8 µg/mL)
SMILES: CC(C)C[C@H](NC(=O)[C@H](CC(C)C)NC(=O)[C@H](CCCCN)NC(=O)[C@H](CCCCN)NC(=O)[C@H](CC(C)C)NC(=O)[C@H](CCCCN)NC(=O)[C@H](CCCCN)NC(=O)[C@H](CC(C)C)NC(=O)[C@H](CC(C)C)NC(=O)[C@H](CCCCN)NC(=O)[C@H](CCCCN)NC(=O)[C@H](CC(C)C)NC(=O)[C@@H](N)CCCCN)C(=O)N[C@@H](CCCCN)C(=O)O [KLKKLLKKLKKLLK]

- MIC [8]: ≥ 288 µM
- MIC [9]: ≥ 575 µM
- MIC [12]: ≥ 144 µM
SMILES: CSCC[C@H](NC(=O)CN)C(=O)N[C@@H](CCCN=C(N)N)C(=O)N1CCC[C@H]1C(=O)N1CCC[C@H]1C(=O)N[C@@H](Cc1c[nH]c2ccccc12)C(=O)N[C@@H](Cc1ccccc1)C(N)=O [GMRPPWF]

- MIC [8]: ≥ 32 µM
- MIC [9]: ≥ 64 µM
- MIC [10]: ≥ 32 µM
SMILES: CC[C@H](C)[C@H](NC(=O)CNC(=O)[C@H](CO)NC(=O)[C@H](CC(C)C)NC(=O)[C@H](CC(C)C)NC(=O)CN)C(=O)N[C@@H](CC(C)C)C(=O)NCC(=O)N[C@@H](C)C(=O)NCC(=O)N[C@@H](CCCCN)C(=O)N[C@@H](CCCCN)C(=O)N[C@H](C(=O)N[C@H](C(=O)O)C(C)C)[C@@H](C)CC [GLLSGILGAGKKIV]

- MIC [13]: ≥ 89.3 µM
SMILES: CC[C@H](C)[C@H](NC(=O)[C@H](CC(C)C)NC(=O)[C@@H](N)CCCN=C(N)N)C(=O)N[C@@H](CCCN=C(N)N)C(=O)N[C@H](C(=O)N[C@@H](CCC(=O)O)C(=O)N[C@@H](CCCN=C(N)N)C(=O)N[C@@H](CC(=O)O)C(=O)N[C@@H](CO)C(=O)N[C@H](C(=O)N[C@@H](CCC(=O)O)C(=O)N[C@@H](C)C(=O)N[C@@H](CC(C)C)C(=O)N[C@@H](CCSC)C(=O)N[C@@H](CCCN=C(N)N)C(=O)N1CCC[C@H]1C(=O)N[C@H](C(=O)NCC(=O)N[C@@H](CCCCN)C(=O)O)[C@@H](C)CC)C(C)C)C(C)C [RLIRVERDSVEALMRPIGK]

- MIC [11]: 11.5 µM (≈ 32 µg/mL)
SMILES: NC(=O)[C@H](Cc1ccccc1)NC(=O)[C@H](Cc1c[nH]c2ccccc12)NC(=O)[C@H](CCCN=C(N)N)NC(=O)[C@H](Cc1c[nH]c2ccccc12)NC(=O)[C@H](CCCN=C(N)N)NC(=O)[C@H](Cc1c[nH]c2ccccc12)NC(=O)[C@H](CCCN=C(N)N)NC(=O)[C@@H]1CCCN1C(=O)[C@H](CO)NC(=O)CNC(=O)[C@H](CO)NC(=O)[C@@H]1CCCN1C(=O)[C@H](Cc1ccccc1)NC(=O)[C@H](Cc1c[nH]c2ccccc12)NC(=O)[C@H](CCCN=C(N)N)NC(=O)[C@H](Cc1c[nH]c2ccccc12)NC(=O)[C@H](CCCN=C(N)N)NC(=O)[C@H](Cc1c[nH]c2ccccc12)NC(=O)[C@@H](N)CCCN=C(N)N [RWRWRWFPSGSPRWRWRWF]

- MIC [11]: ≥ 93.4 µM
SMILES: CC[C@H](C)[C@H](NC(=O)[C@H](CCC(N)=O)NC(=O)[C@H](CCCCN)NC(=O)[C@@H](NC(=O)[C@H](CCC(N)=O)NC(=O)[C@H](CC(N)=O)NC(=O)[C@H](CC(C)C)NC(=O)[C@@H](NC(=O)[C@@H](N)CCCN=C(N)N)C(C)C)C(C)C)C(=O)N[C@@H](CC(C)C)C(=O)N[C@@H](CCCCN)C(=O)O [RVLNQVKQILK]

- MIC [18]: 4.78 µM (≈ 8 µg/mL)
- MIC [15]: 9.56 µM (≈ 16 µg/mL)
- MIC [16]: 76.5 µM (≈ 128 µg/mL)
- MIC [1]: 9.56 µM (≈ 16 µg/mL)
SMILES: CC[C@H](C)[C@H](NC(=O)[C@H](Cc1c[nH]c2ccccc12)NC(=O)[C@H](Cc1ccccc1)NC(=O)[C@H](CC(C)C)NC(=O)CN)C(=O)N[C@H](C(=O)N[C@@H](CCCCN)C(=O)N[C@@H](CCCCN)C(=O)N[C@H](C(=O)N[C@H](C(=O)NCC(=O)N[C@@H](CCCCN)C(=O)N[C@@H](CC(C)C)C(=O)N[C@@H](CCCN=C(N)N)C(=O)O)[C@@H](C)CC)[C@@H](C)O)[C@@H](C)CC [GLFWIIKKTIGKLR]

From DBAASP
